Values of other authors in patent publication US20240182893A1, “INHIBITION OF FGR REDUCES FIBROSIS” (UNIVERSITY OF PITTSBURGH-OF THE COMMONWEALTH SYSTEM OF …, priority 2021, published 2024).

Test system: fibrosis in the lung
Details: in vivo; cited from earlier work

Structure (SMILES) | progression of fibrosis in the lung
COC(=O)c1ccc2c(c1)NC(=O)/C2=C(\Nc1ccc(N(C)C(=O)CN2CCN(C)CC2)cc1)c1ccccc1 [nintedanib] | slow the progression of fibrosis
Cc1ccc(=O)n(-c2ccccc2)c1 [pirfenidone] | slow the progression of fibrosis
